Results reported in patent US20260286363A1, “COMPOSITIONS AND METHODS FOR DIAGNOSING, TREATING, AND PREVENTING LYSOSOMAL STORAGE DISEASES” (Wylder Nation Foundation, priority 2022, published 2026).
Read-outs that look alike come from different tables or passages of the source.

Experiments:
cultured wt neurons [1] = experiment: Cell viability MTT assay in cultured wt neurons; assay type: cell-based, mouse; settings: for neuronal death upon SM16:0 addition in the presence of acid and neutral sphingomyelinase inhibitors (MTT): wt neurons, SM16:0 plus desipramine or GW4869
Description: Cell viability was evaluated using the MTT (methylthiazolyldiphenyltetrazoliumbromide, Sigma) assay. Briefly, 3×10^4 neurons were plated in 96-well plates coated with poly-L-lysine (0.1 mg/ml). At DIV14 1 mM MTT was added to the wells and incubated for 4 h. Then, the supernatant was discarded, and […] DMSO was added to the wells. The absorbance was measured at 570 nm using a microplate reader (FLUOstar Optima, BMG Labtech). Cells treated with DMSO were used as a control.

[2] = system: Cortical neurons from wt mice; experiment: LC/MS quantification of SM in cultured wt neurons incubated with SM species; assay type: cell-based, mouse; settings: for increase of total SM levels: wt cortical neurons cultured 48 hr with 40 μM; for relative abundance of the added SM species, of the total SM: wt cortical neurons, 48 hr, 40 μM
Description: Sample analysis was performed in an Acquity ultraperformance liquid chromatography (UPLC) system (Waters, USA) connected to a time-of-flight (TOF; LCT Premier XE) detector controlled with Waters/Micromass MassLynx software.
A study was done to determine the impact of the different increments of individual SM species in ASMko mice and cells on their specific accumulation in neurons. Cortical neurons from wt mice were cultured for 48 hr with 40 μM of either total SM from bovine brain (SMb, containing similar SM species proportions than total SM from mouse brain); or individual SM16:0; SM18:0 or SM24:1. […] LC/MS quantification assessed the effect of each treatment on the relative abundance of the added SM species. Incubation with SM16:0 and SM18:0 drastically raised the relative abundance of each of these species to 88% and 82% of the total (FIG. 2B). Incubation with SM24:1 increased the prevalence of this species to 30%, while addition of SMb reduced the relative abundance of SM18:0 and SM16:0 by 4% and 15%, respectively, while increased that of SM24:1 by 8% (FIG. 2B).

cultured wt neurons [3] = experiment: LAMP1 surface staining in non-permeabilized neurons (lysosomal exocytosis); assay type: cell-based, mouse
Description: ASMko and wt cultured neurons at 14DIV were washed with PBS and fixed with 2% PFA in PBS and 0.12 M sucrose for 8 min. Immunofluorescence was performed using a conventional protocol in the absence of detergent to avoid cell permeabilization.

cultured wt neurons [4] = experiment: pSM16:0 co-localization with subcellular markers (Mander's coefficient); assay type: cell-based, mouse
Description: Cultured neurons at 14 DIV were fixed in 4% PFA 0.12M sucrose and incubated overnight with primary antibodies and subsequently for 1 h with Alexa 488- or Alexa 555-conjugated secondary antibodies. Images were taken using a confocal microscope LSM710 (Zeiss). The Mander's coefficient for pSM 16:0 co-localization with Thy1; PSD95; TOM20; EEA1; LAMP1; GM130 was determined by using the JACOP plugin. Mouse brains were dissected, fixed in 4% PFA 0.12M sucrose, and cryoprotected for 24 h in 30% sucrose phosphate buffer saline. The tissue was then frozen in Tissue-Tek optimal cutting temperature compound (Sakura Finetek, Torrance, CA, USA), and 40-μm sagittal sections were obtained with a cryostat (CM 1950 Ag Protect freezing: Leica, Solms, Germany). The sections were incubated overnight at 4° C. with the primary antibodies and then with the corresponding Alexa-conjugated secondary antibodies. Finally, the sections were incubated for 10 min with DAPI (Merck), washed, and mounted with ProLong Gold Antifade (Thermo Fisher). Images were obtained on a confocal LSM710 microscope (Zeiss) and quantified using the Fiji software.
Cultured neurons were treated with 40 μM propargyl SM (pSM 16:0) (Merck; #860711P) for 48 hours at DIV12. After immunofluorescence protocol, explained above, click reaction was performed for the attachment of fluorescent reporter (Sulfo-Cy3-Azide; Jena Biosciences; #CLK-AZ119-1) to pSM 16:0.
The surprising effects of SM16:0 on lysosomes compared to other SM species supported a hypothesis that this lipid targets these organelles. To explore this possibility, we took advantage of the existence of the analogue propargyl SM16:0 (pSM16:0), which is linked to an alkyne group and can be traced by click chemistry and fluorescence microscopy. We added pSM16:0 for 48 hours to cultured wt neurons and performed double immunofluorescence with markers of different cellular compartments.

ASM = biological target: T1, ASM (Mus musculus, UniProt Q04519); experiment: Enzymatic assay of SMb or SM16:0 metabolized by ASM activity; assay type: biochemical; settings: fluorescence per nmol metabolized, slope analysis
T1 sequence (Q04519 45-627): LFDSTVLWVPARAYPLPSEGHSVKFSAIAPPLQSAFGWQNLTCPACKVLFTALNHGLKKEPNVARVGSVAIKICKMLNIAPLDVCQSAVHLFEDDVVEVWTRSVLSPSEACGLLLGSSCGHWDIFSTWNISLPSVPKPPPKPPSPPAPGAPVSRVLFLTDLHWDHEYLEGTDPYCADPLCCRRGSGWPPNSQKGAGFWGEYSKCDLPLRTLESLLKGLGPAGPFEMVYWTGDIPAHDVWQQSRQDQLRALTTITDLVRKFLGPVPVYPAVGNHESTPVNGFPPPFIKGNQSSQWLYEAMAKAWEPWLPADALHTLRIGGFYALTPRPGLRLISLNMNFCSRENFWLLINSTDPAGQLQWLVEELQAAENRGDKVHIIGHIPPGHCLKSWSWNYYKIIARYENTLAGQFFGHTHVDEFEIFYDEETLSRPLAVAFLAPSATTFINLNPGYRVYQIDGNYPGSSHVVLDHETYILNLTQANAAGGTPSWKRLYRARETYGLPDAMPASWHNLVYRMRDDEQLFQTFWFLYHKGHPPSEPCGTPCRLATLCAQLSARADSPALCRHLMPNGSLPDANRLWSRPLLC
Description: SM levels were measured according to protocols modified from (Hojati and Jiang, 2006). Lipid extracts were dried in the presence of Thesit, and SM was converted into peroxide by incubation with sphingomyelinase (Smase C from Merck; #S9396 or ASM from Sino Biological; #50749-M08B), alkaline phosphatase, and choline oxidase. Peroxide was measured fluorimetrically in the presence of peroxidase and homovanillic acid (Van Veldhoven et al., 1997).

[5] = system: wt primary cultured neurons; settings: not told
Description: Lysotracker Red DND99 (Thermo Fisher Scientific) was added to wt primary cultured neurons at 1 μM and incubated for 20 min at 37° C. Cells were then fixed in 4% PFA and mounted using Prolong Gold Antifade (Invitrogen). Images were taken on a confocal LSM710 microscope (Zeiss).
To investigate the effect of the different SM species in these organelles, several lysosomal-related parameters were measured. To analyze lysosomal permeabilization, the lysotracker red dye, which fluoresces in acidic environments was utilized.

wt neurons = settings: cultured neurons
Description: To assess reactive oxygen species (ROS), cultured neurons were incubated for 20 min with dihydrorhodamine 123 (10 μM, DHR: Molecular Probes, Carlsbad, CA, USA). The fluorescence product of DHR, rhodamine-123, was detected at excitation and emission wavelengths of 500 and 536 nm, respectively. Images of cultured neurons were captured on a confocal microscope (LSM710; Zeiss).
Since high levels of SM also can induce oxidative stress, reactive oxygen species (ROS) was evaluated by dihydrorhodamine 123 (DHR) staining in wt neurons incubated with the different SM species.

ASM knock-out mice = experiment: Lipidomic analysis of brain, liver and plasma of ASM knock-out mice after i.p. rhASM; assay type: in vivo, mouse
Description: Mouse brain and liver samples were homogenized in water (1 g wet tissue/4 mL). SM was extracted from 50 μL of homogenate or 50 μL of plasma in the presence of SM (17:0) as internal standard using Bligh-Dyer lipid extraction (Bligh and Dyer, 1959). Sample analysis was performed in a Shimadzu 20AD HPLC system coupled to a 6500QTRAP+ mass spectrometer (AB Sciex, Framingham, MA) operated in positive multiple reaction monitoring mode. Data processing was conducted with Analyst 1.6.3 (AB Sciex). Data were reported as the peak area ratios of the analytes in sample to the internal standard.
To identify potential biomarkers of brain pathology in ASMD subjects a study was conducted in ASM knock-out mice. In brief, ASM knock-out mice received an i.p. injection of rhASM at 1 mg/kg every other day for 14 days. Results were compared to previous lipidomic analysis done on WT/ASMko mice at 2, 4, and 6 months.
Lipidomic analysis were completed on the brain, liver, and plasma of the treated mice. Analyzed lipids comprised: SM, LSM, SM OH, and m/z 805 (a phosphocholine compound). Total SM levels post i.p. rhASM injection are shown in FIG. 13A and below at Table 3.

[6] = 48 hours, wt neurons, Mander's coefficient
[7] = Liver, i.p. 1 mg/kg every other day for 14 days
[8] = Plasma, i.p. 1 mg/kg every other day for 14 days

Cl.Cl.O=C(/C=C/c1ccc(/C=C/C(=O)Nc2ccc(C3=NCCN3)cc2)cc1)Nc1ccc(C2=NCCN2)cc1 [GW4869]
neuronal death upon SM16:0 addition in the presence of acid and neutral sphingomyelinase inhibitors (MTT) (cultured wt neurons [1]): not prevented

CCCCCCCCCCCCC/C=C/[C@@H](O)[C@@H](N)COP(=O)([O-])OCC[N+](C)(C)C [LysoSM, lyso-sphingomyelin]
deleterious effects on cultured neurons (MTT viability) (cultured wt neurons [1]; addition to cultured neurons): did not find deleterious effects

CCCCCCCCCCCCC/C=C/[C@@H](O)[C@H](COP(=O)([O-])OCC[N+](C)(C)C)NC(=O)CCCCCCCCCCCCCCC [SM16:0, sphingomyelin 16:0]
increase of total SM levels [2]: 6.6 fold | relative abundance of the added SM species, of the total SM [2]: 88% | lysosomal exocytosis (surface staining of LAMP1) (cultured wt neurons [3]): induced lysosomal exocytosis | reduction of neuronal survival / cell death (MTT) (cultured wt neurons [1]; mouse, cultured neurons): 50% | neuronal death upon SM16:0 addition in the presence of acid and neutral sphingomyelinase inhibitors (MTT) (cultured wt neurons [1]): induces cell death | accumulation in lysosomes (pSM16:0 colocalization with Lamp1) (cultured wt neurons [4]; wt neurons treated with ASM inhibitor desipramine): accumulates in lysosomes | substrate preference of ASM (SM16:0 vs SMb) (ASM): ASM has a preference to degrade SM16:0 | lysosomal permeabilization (change of Lysotracker staining from dotty to diffuse cytosolic pattern) [5]: indicative of lysosomal permeabilization | elevation in ROS levels (DHR staining) (wt neurons): 1.6 fold

CCCCCCCCCCCCC/C=C/[C@@H](O)[C@H](COP(=O)([O-])OCC[N+](C)(C)C)NC(=O)CCCCCCCCCCCCCCCCC [SM18:0, sphingomyelin 18:0]
increase of total SM levels [2]: 3.5 fold | relative abundance of the added SM species, of the total SM [2]: 82% | reduction of neuronal survival / cell death (MTT) (cultured wt neurons [1]; mouse, cultured neurons): 25%

propargyl SM16:0 [pSM16:0]
co-localization with early endosome marker EEA1 (cultured wt neurons [4]; [6]): low degree of co-localization | co-localization with mitochondrial marker TOM20 (cultured wt neurons [4]; [6]): low degree of co-localization | co-localization with plasma membrane marker Thy-1 (cultured wt neurons [4]; [6]): low degree of co-localization | co-localization with synaptic marker PSD95 (cultured wt neurons [4]; [6]): low degree of co-localization | colocalization with Golgi apparatus marker GM130 (cultured wt neurons [4]; [6]): high colocalization | colocalization with endolysosomal marker LAMP1 (cultured wt neurons [4]; [6]): high colocalization

sphingomyelin 24:1 [SM24:1]
increase of total SM levels [2]: not significant | relative abundance of the added SM species, of the total SM [2]: 30% | reduction of neuronal survival / cell death (MTT) (cultured wt neurons [1]): no deleterious effects

B1: rhASM: recombinant human acid sphingomyelinase (protein, UniProt P17405 47-631, looked up)
Sphingomyelin …: LALSDSRVLWAPAEAHPLSPQGHPARLHRIVPRLRDVFGWGNLTCPICKGLFTAINLGLKKEPNVARVGSVAIKLCNLLKIAPPAVCQSIVHLFEDDMVEVWRRSVLSPSEACGLLLGSTCGHWDIFSSWNISLPTVPKPPPKPPSPPAPGAPVSRILFLTDLHWDHDYLEGTDPDCADPLCCRRGSGLPPASRPGAGYWGEYSKCDLPLRTLESLLSGLGPAGPFDMVYWTGDIPAHDVWHQTRQDQLRALTTVTALVRKFLGPVPVYPAVGNHESTPVNSFPPPFIEGNHSSRWLYEAMAKAWEPWLPAEALRTLRIGGFYALSPYPGLRLISLNMNFCSRENFWLLINSTDPAGQLQWLVGELQAAEDRGDKVHIIGHIPPGHCLKSWSWNYYRIVARYENTLAAQFFGHTHVDEFEVFYDEETLSRPLAVAFLAPSATTYIGLNPGYRVYQIDGNYSGSSHVVLDHETYILNLTQANIPGAIPHWQLLYRARETYGLPNTLPTAWHNLVYRMRGDMQLFQTFWFLYHKGHPPSEPCGTPCRLATLCAQLSARADSPALCRHLMPDGSLPEAQSLWPRPLFC
SM 16:0 level decrease after i.p. rhASM injection (ASM knock-out mice; Brain): does not change | Total LSM levels, % Decrease with rhASM injection (ASM knock-out mice; Brain, i.p. 1 mg/kg every other day for 14 days): does not change | SM 16:0 level decrease after i.p. rhASM injection (ASM knock-out mice; Liver): 15% | Total SM levels, % Decrease with rhASM injection (ASM knock-out mice; [7]): 22% | Total m/z 805 levels, % Decrease with rhASM injection (ASM knock-out mice; [7]): 70% | SM 16:0 level decrease after i.p. rhASM injection (ASM knock-out mice; Plasma): 35% | Total LSM levels, % Decrease with rhASM injection (ASM knock-out mice; [8]): 70% | Total SM levels, % Decrease with rhASM injection (ASM knock-out mice; [8]): 31% | SM OH levels after i.p. rhASM injection (ASM knock-out mice; brain, liver, plasma): reduction in all samples tested | m/z 805 levels after rhASM injections, across tissues (ASM knock-out mice; brain, liver, plasma): decreases only in the liver
